Measured values: PMC11162475, “Rule-based omics mining reveals antimicrobial macrocyclic peptides against drug-resistant clinical isolates” (Nature Communications, 2024)
In brackets after ≈: the same amount, converted by molar mass.

Legend:
[1] = test system: LREfa 20-1; test: microbe, parasite or virus in culture; assay type: cell-based, Enterococcus faecalis; conditions: Enterococcus faecalis, 201; LREfa 20-1 (linezolid-resistant E. faecalis); determined by Sichuan Primed Shines Bio-tech, similar protocol; read-out: MIC
Protocol: (§1) For MIC determination, Staphylococcus aureus ATCC25923, Bacillus subtilis 168, Micrococcus luteus DSM1790, Enterococcus faecalis OG1RF, Enterococcus faecium MCC2763, Escherichia coli DH5α and Pseudomonas aeruginosa PAO1 were used as indicator strains. Nisin and vancomycin were used as positive controls. A dilution series of massatide A, massatide B, vancomycin (16, 8, 4, 2, 1, 0.5, 0.25, 0.125, 0.0625, 0.0313 μg/mL) and sistertide A1, kebanetide A1, kebanetide A2, nisin (64, 32, 16, 8, 4, 2, 1, 0.5, 0.25, 0.125 μg/mL) were prepared in 96-well plate from 1–10th column. The indicator strains were added to the compound-containing well. The indicator strain culture with no antibiotics was prepared in the 11th column. The 12th column was filled with 200 μL empty MHB medium. The 96-well plate was incubated at 37 °C for 20 h (30 °C for M. luteus and B. subtilis). The OD600 was detected on MULTISKAN Sky (Thermo Scientific) and MIC values were determined. The MIC values of clinical isolates were determined by Sichuan Primed Shines Bio-tech Co., Ltd. (China) following similar protocol. Levofloxacin was used as a positive control.

[2] = test system: VREfa ATCC51575; test: microbe, parasite or virus in culture; assay type: cell-based, Enterococcus faecalis; conditions: Enterococcus faecalis; VREfa ATCC51575 (vancomycin-resistant E. faecalis); determined by Sichuan Primed Shines Bio-tech, similar protocol; read-out: MIC
Protocol: as §1

[3] = test system: Enterococcus faecalis 19-1; test: microbe, parasite or virus in culture; assay type: cell-based; conditions: 191; Enterococcus faecalis 19-1; determined by Sichuan Primed Shines Bio-tech, similar protocol; read-out: MIC
Protocol: as §1

[4] = test system: Acinetobacter baumannii 20-2; test: microbe, parasite or virus in culture; assay type: cell-based; conditions: 202; Acinetobacter baumannii 20-2; determined by Sichuan Primed Shines Bio-tech, similar protocol; read-out: MIC
Protocol: as §1

[5] = test system: Klebsiella pneumoniae 15-1; test: microbe, parasite or virus in culture; assay type: cell-based; conditions: 151; Klebsiella pneumoniae 15-1; determined by Sichuan Primed Shines Bio-tech, similar protocol; read-out: MIC
Protocol: as §1

[6] = test system: Klebsiella pneumoniae ATCC700603; test: microbe, parasite or virus in culture; assay type: cell-based; conditions: Klebsiella pneumoniae ATCC700603; determined by Sichuan Primed Shines Bio-tech, similar protocol; read-out: MIC
Protocol: as §1

[7] = test system: Acinetobacter baumannii 20-1; test: microbe, parasite or virus in culture; assay type: cell-based; conditions: 201; Acinetobacter baumannii 20-1; determined by Sichuan Primed Shines Bio-tech, similar protocol; read-out: MIC
Protocol: as §1

[8] = test system: MRSA ATCC43300; test: microbe, parasite or virus in culture; assay type: cell-based, Staphylococcus aureus; conditions: Staphylococcus aureus; MRSA ATCC43300; determined by Sichuan Primed Shines Bio-tech, similar protocol; read-out: MIC
Protocol: as §1

[9] = test system: VMSA ATCC700788; test: microbe, parasite or virus in culture; assay type: cell-based, Staphylococcus aureus; conditions: Staphylococcus aureus; VMSA ATCC700788 (vancomycin-intermediate S. aureus); determined by Sichuan Primed Shines Bio-tech, similar protocol; read-out: MIC
Protocol: as §1

[10] = test system: MRSA ATCC33591; test: microbe, parasite or virus in culture; assay type: cell-based, Staphylococcus aureus; conditions: Staphylococcus aureus; MRSA ATCC33591; determined by Sichuan Primed Shines Bio-tech, similar protocol; read-out: MIC
Protocol: as §1

[11] = test system: MRSA 15-1; test: microbe, parasite or virus in culture; assay type: cell-based, Staphylococcus aureus; conditions: Staphylococcus aureus; MRSA 15-1 (methicillin-resistant S. aureus); determined by Sichuan Primed Shines Bio-tech, similar protocol; read-out: MIC
Protocol: as §1

[12] = test system: LRSA 20-1; test: microbe, parasite or virus in culture; assay type: cell-based, Staphylococcus aureus; conditions: Staphylococcus aureus; LRSA 20-1 (linezolid-resistant S. aureus); determined by Sichuan Primed Shines Bio-tech, similar protocol; read-out: MIC
Protocol: as §1

[13] = test system: VMSA ATCC700699; test: microbe, parasite or virus in culture; assay type: cell-based, Staphylococcus aureus; conditions: Staphylococcus aureus; VMSA ATCC700699 (vancomycin-intermediate S. aureus); determined by Sichuan Primed Shines Bio-tech, similar protocol; read-out: MIC
Protocol: as §1

[14] = test system: S. aureus ATCC 25923; conditions: 25 days of serial passaging, control antibiotic
Protocol: was used as a negative control.
Experiments were performed in triplicate.
The experiment was performed in triplicate.

[15] = test system: Enterococcus faecalis OG1RF; test: microbe, parasite or virus in culture; assay type: cell-based; conditions: Enterococcus faecalis, OG1RF, 20 h
Protocol: as §1

[16] = test system: Micrococcus luteus DSM1790; test: microbe, parasite or virus in culture; assay type: cell-based; conditions: Micrococcus luteus, DSM1790, 20 h
Protocol: as §1

[17] = test system: Staphylococcus aureus ATCC25923; test: microbe, parasite or virus in culture; assay type: cell-based; conditions: Staphylococcus aureus, ATCC25923, 20 h
Protocol: as §1

[18] = test system: Bacillus subtilis 168; test: microbe, parasite or virus in culture; assay type: cell-based; conditions: Bacillus subtilis, 168, 20 h
Protocol: as §1

[19] = test system: Enterococcus faecium MCC2763; test: microbe, parasite or virus in culture; assay type: cell-based; conditions: Enterococcus faecium, MCC2763, 20 h
Protocol: as §1

[20] = test system: S. aureus ATCC 25923; test: Lysis of S. aureus culture; assay type: cell-based, Staphylococcus aureus; conditions: S. aureus ATCC 25923 culture OD600 1.0, 10×MIC, 24 h
Protocol: Growth kinetics of S. aureus
Massatide A or B was prepared in a 96-well plate at the concentration of 8×MIC, 4×MIC, 2×MIC, 1×MIC and 0.5×MIC , respectively. The MHB medium with no compound was used as a control. Then, the overnight culture of S. aureus ATCC 25923 cells was added to the medium at 1:1,000. The plate was incubated with shaking in SpectraMax iD3 (MOLECULAR DEVICES) at 30 ℃. OD600 was measured every 30 min for 36 hours. To analyze the lysis, 1mL of S. aureus ATCC 25923 culture (OD600 1.0) was treated with massatide A or vancomycin (10×MIC) for 24h. An untreated sample was used as a negative control. […]
(§2) Experiments were performed in triplicate. […]

[21] = test system: S. aureus ATCC 25923; test: Time-dependent killing assay; assay type: cell-based, Staphylococcus aureus; conditions: time-killing assay
Protocol: Time-dependent killing assay
An overnight culture of S. aureus ATCC 25923 cells was diluted at 1:10,000 in MHB medium and incubated at 37 ℃, 200 rpm for 2 hours to reach the early exponential.
Then, massatide A or vancomycin was added to the culture at the concentration of 10×MIC. Bacteria were still cultivated at 37 ℃, 200 rpm. Culture with no antibiotics was used as a negative control. 10 μL aliquots were removed at intervals, centrifuged, and resuspended in 1 ml PBS. Serially diluted (10-fold) suspensions were plated on MHB agar and incubated at 37 ℃ overnight for counting of colony-forming units.
as §2

C[C@H]1COc2c(N3CCN(C)CC3)c(F)cc3c(=O)c(C(=O)O)cn1c23 [Levofloxacin, reference compound]
MIC [1]: 32 µg/mL (≈ 88.6 µM)
MIC [2]: 0.5 µg/mL (≈ 1.38 µM)
MIC [3]: 1 µg/mL (≈ 2.77 µM)
MIC [4]: 0.06 µg/mL (≈ 0.166 µM)
MIC [5]: 0.25 µg/mL (≈ 0.692 µM)
MIC [6]: 0.5 µg/mL (≈ 1.38 µM)
MIC [7]: 8 µg/mL (≈ 22.1 µM)
MIC [8]: 0.25 µg/mL (≈ 0.692 µM)
MIC [9]: 32 µg/mL (≈ 88.6 µM)
MIC [10]: 0.25 µg/mL (≈ 0.692 µM)
MIC [11]: 16 µg/mL (≈ 44.3 µM)
MIC [12]: 32 µg/mL (≈ 88.6 µM)
MIC [13]: 64 µg/mL (≈ 177 µM)

CN[C@H](CC(C)C)C(=O)N[C@H]1C(=O)N[C@@H](CC(N)=O)C(=O)N[C@H]2C(=O)N[C@H]3C(=O)N[C@H](C(=O)N[C@H](C(=O)O)c4cc(O)cc(O)c4-c4cc3ccc4O)[C@H](O)c3ccc(c(Cl)c3)Oc3cc2cc(c3O[C@@H]2O[C@H](CO)[C@@H](O)[C@H](O)[C@H]2O[C@H]2C[C@](C)(N)[C@H](O)[C@H](C)O2)Oc2ccc(cc2Cl)[C@H]1O [Vancomycin, reference compound]
shift of MIC during serial passaging [14]: absence of a shift
MIC [15]: 2 µg/mL (≈ 1.38 µM)
MIC [16]: 0.125 µg/mL (≈ 0.0863 µM)
MIC [17]: 1 µg/mL (≈ 0.69 µM)
MIC [18]: 0.125 µg/mL (≈ 0.0863 µM)
MIC [19]: 1 µg/mL (≈ 0.69 µM)
lysis of the cell culture [20]: the same as vancomycin
log(CFU/mL) ([21]; time 0 h, log of mean of 3 replicates): 6.907 log(CFU/mL)
CFU/mL ([21]; time 0 h, mean of 3 replicates): 8080000 CFU/mL
CFU/mL ([21]; time 0 h, replicate 1): 8440000 CFU/mL
log(CFU/mL) ([21]; time 0 h, replicate 1): 6.926 log(CFU/mL)
CFU/mL ([21]; time 0 h, replicate 2): 8020000 CFU/mL
log(CFU/mL) ([21]; time 0 h, replicate 2): 6.904 log(CFU/mL)
CFU/mL ([21]; time 0 h, replicate 3): 7780000 CFU/mL
log(CFU/mL) ([21]; time 0 h, replicate 3): 6.891 log(CFU/mL)
log(CFU/mL) ([21]; time 1 h, log of mean of 3 replicates): 6.695 log(CFU/mL)
CFU/mL ([21]; time 1 h, mean of 3 replicates): 4950000 CFU/mL
CFU/mL ([21]; time 1 h, replicate 1): 5360000 CFU/mL
log(CFU/mL) ([21]; time 1 h, replicate 1): 6.729 log(CFU/mL)
CFU/mL ([21]; time 1 h, replicate 2): 5200000 CFU/mL
log(CFU/mL) ([21]; time 1 h, replicate 2): 6.716 log(CFU/mL)
CFU/mL ([21]; time 1 h, replicate 3): 4290000 CFU/mL
log(CFU/mL) ([21]; time 1 h, replicate 3): 6.632 log(CFU/mL)
log(CFU/mL) ([21]; time 3 h, log of mean of 3 replicates): 6.685 log(CFU/mL)
CFU/mL ([21]; time 3 h, mean of 3 replicates): 4836667 CFU/mL
CFU/mL ([21]; time 3 h, replicate 1): 4940000 CFU/mL
log(CFU/mL) ([21]; time 3 h, replicate 1): 6.694 log(CFU/mL)
CFU/mL ([21]; time 3 h, replicate 2): 4850000 CFU/mL
log(CFU/mL) ([21]; time 3 h, replicate 2): 6.686 log(CFU/mL)
CFU/mL ([21]; time 3 h, replicate 3): 4720000 CFU/mL
log(CFU/mL) ([21]; time 3 h, replicate 3): 6.674 log(CFU/mL)
log(CFU/mL) ([21]; time 7 h, log of mean of 3 replicates): 5.899 log(CFU/mL)
CFU/mL ([21]; time 7 h, mean of 3 replicates): 791667 CFU/mL
CFU/mL ([21]; time 7 h, replicate 1): 695000 CFU/mL
log(CFU/mL) ([21]; time 7 h, replicate 1): 5.842 log(CFU/mL)
CFU/mL ([21]; time 7 h, replicate 2): 770000 CFU/mL
log(CFU/mL) ([21]; time 7 h, replicate 2): 5.886 log(CFU/mL)
CFU/mL ([21]; time 7 h, replicate 3): 910000 CFU/mL
log(CFU/mL) ([21]; time 7 h, replicate 3): 5.959 log(CFU/mL)
log(CFU/mL) ([21]; time 26 h, log of mean of 3 replicates): 3.724 log(CFU/mL)
CFU/mL ([21]; time 26 h, mean of 3 replicates): 5300 CFU/mL
CFU/mL ([21]; time 26 h, replicate 1): 5500 CFU/mL
log(CFU/mL) ([21]; time 26 h, replicate 1): 3.74 log(CFU/mL)
CFU/mL ([21]; time 26 h, replicate 2): 5400 CFU/mL
log(CFU/mL) ([21]; time 26 h, replicate 2): 3.732 log(CFU/mL)
CFU/mL ([21]; time 26 h, replicate 3): 5000 CFU/mL
log(CFU/mL) ([21]; time 26 h, replicate 3): 3.699 log(CFU/mL)
